Measurements: paper PMC10974507, “Design, Synthesis, Biological Evaluation and Molecular Docking of Novel F-18-Labeled Focal Adhesion Kinase Inhibitors as Potential Tumor Radiotracers” (Molecules, 2024)

How the values were obtained:
FAK = FAK (Homo sapiens, UniProt Q05397); assay: FAK inhibitory assay (homogeneous time-resolved fluorescence kinase assay); assay type: biochemical; conditions: in vitro enzyme activity against FAK
Experimental: The inhibitory activities of the 7a–7c against FAK were tested using a homogeneous time-resolved fluorescence methodology-based kinase assay.
(§1) The FAK kinase inhibition test and the partition coefficient test were conducted according to a previously reported method.

[1] = tested on: mice bearing S-180 tumors; assay: Biodistribution in S-180 tumor-bearing mice; assay type: in vivo, Kunming mice; conditions: for Biodistribution, Tumor (tumor uptake): S-180 tumor; for Biodistribution, Tumor (tumor uptake) / Biodistribution, Blood / Biodistribution, Bone / Biodistribution, Brine / Biodistribution, Heart / Biodistribution, Kidney / Biodistribution, Large intestine / Biodistribution, Liver / Biodistribution, Lung / Biodistribution, Muscle / Biodistribution, Small intestine / Biodistribution, Spleen / Biodistribution, Stomach: mean ± SD, n = 3
Experimental: Kunming mice (female, 18−22 g) and S180 ascites mice were purchased from Beijing Xinglong Animal Technology Co., Ltd., Beijing, China and Beijing Vital River Animal Technology Co., Ltd., Beijing, China, respectively. All the mice-concerned experiments were conducted in strict accordance with the “Guidelines for Humane Treatment of Laboratory Animals”, and the whole process was approved by the Animal Protection Committee of Beijing Normal University (Approval Code: BNUCC-EAW-2023-16; Approval date: 14 June 2023). The specific experimental operations were in accordance with those methods described previously.

[2] = Octanol/water partition coefficient determination; assay type: physicochemical; conditions: pH 7.4, read-out: logD7.4
Experimental: The partition coefficients of the radiotracers [^18F]7a and [^18F]7c were determined to evaluate the octanol/water partition properties.
as §1

[3] = 30 min after intravenous injection
[4] = 60 min after intravenous injection
[5] = 120 min after intravenous injection

FAK, sequence (Q05397 whole entry, species assumed): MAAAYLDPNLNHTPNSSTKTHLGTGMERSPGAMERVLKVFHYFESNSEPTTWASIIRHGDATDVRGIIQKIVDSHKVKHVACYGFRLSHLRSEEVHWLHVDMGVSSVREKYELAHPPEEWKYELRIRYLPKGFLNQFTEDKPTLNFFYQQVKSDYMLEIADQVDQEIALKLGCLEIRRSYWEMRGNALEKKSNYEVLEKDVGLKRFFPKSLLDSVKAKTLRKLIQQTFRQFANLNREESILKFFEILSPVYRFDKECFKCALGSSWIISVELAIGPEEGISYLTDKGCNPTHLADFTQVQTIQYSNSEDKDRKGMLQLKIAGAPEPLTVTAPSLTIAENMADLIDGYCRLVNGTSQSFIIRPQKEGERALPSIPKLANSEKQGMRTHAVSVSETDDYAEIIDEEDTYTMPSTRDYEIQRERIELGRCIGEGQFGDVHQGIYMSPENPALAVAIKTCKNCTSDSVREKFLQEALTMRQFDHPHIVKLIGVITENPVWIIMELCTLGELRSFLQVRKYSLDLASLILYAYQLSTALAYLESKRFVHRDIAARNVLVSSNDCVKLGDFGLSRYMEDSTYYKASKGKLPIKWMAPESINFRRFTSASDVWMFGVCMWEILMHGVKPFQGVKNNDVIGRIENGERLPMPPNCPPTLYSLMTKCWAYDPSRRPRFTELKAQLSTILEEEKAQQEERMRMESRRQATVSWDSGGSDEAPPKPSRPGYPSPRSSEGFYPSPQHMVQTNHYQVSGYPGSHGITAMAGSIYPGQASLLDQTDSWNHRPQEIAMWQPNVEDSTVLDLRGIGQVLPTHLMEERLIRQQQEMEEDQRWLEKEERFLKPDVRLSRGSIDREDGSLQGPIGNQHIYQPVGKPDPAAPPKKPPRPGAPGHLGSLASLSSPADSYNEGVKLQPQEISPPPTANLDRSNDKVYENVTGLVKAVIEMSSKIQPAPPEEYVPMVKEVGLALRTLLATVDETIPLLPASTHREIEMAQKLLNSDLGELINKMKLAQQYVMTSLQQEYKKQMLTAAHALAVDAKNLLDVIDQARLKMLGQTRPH

CNC(=O)c1cc(N2CCS(=O)(=O)CC2)ccc1Nc1nc(Nc2ccc(OCCOCCOCCF)cc2)ncc1Br [Compound 7a, 2-((5-bromo-2-((4-(2-(2-(2-fluoroethoxy)ethoxy)ethoxy)phenyl)amino)pyrimidin-4-yl)amino)-5-(1,1-dioxidothiomorpholino)-N-methylbenzamide]
IC50 (FAK): 5.59 nM

CNC(=O)c1cc(N2CCS(=O)(=O)CC2)ccc1Nc1nc(Nc2ccc(OCCOCCOCCF)c(C(=O)N3CCN(C(C)=O)CC3)c2)ncc1Br [Compound 7b, 2-((2-((3-(4-acetylpiperazine-1-carbonyl)-4-(2-(2-(2-fluoroethoxy)ethoxy)ethoxy)phenyl)amino)-5-bromopyrimidin-4-yl)amino)-5-(1,1-dioxidothiomorpholino)-N-methylbenzamide]
IC50 (FAK): 24.6 nM

CNC(=O)c1cc(N2CCS(=O)(=O)CC2)ccc1Nc1nc(Nc2ccc(OCCOCCOCCF)c(-c3cnn(C)c3)c2)ncc1Br [Compound 7c, 2-((5-bromo-2-((4-(2-(2-(2-fluoroethoxy)ethoxy)ethoxy)-3-(1-methyl-1H-pyrazol-4-yl)phenyl)amino)pyrimidin-4-yl)amino)-5-(1,1-dioxidothiomorpholino)-N-methylbenzamide]
IC50 (FAK): 1.27 nM
Biodistribution, Tumor (tumor uptake) [1, 3]: 6.58 ± 0.46 % ID/g

CNC(=O)c1cc(N2CCN(C(C)=O)CC2)ccc1Nc1nc(Nc2ccc(OCCOCCOCCF)c(C(=O)N3CCOCC3)c2)ncc1Br [Compound 7d, 5-(4-acetylpiperazin-1-yl)-2-((5-bromo-2-((4-(2-(2-(2-fluoroethoxy)ethoxy)ethoxy)-3-(morpholine-4-carbonyl)phenyl)amino)pyrimidin-4-yl)amino)-N-methylbenzamide]
IC50 (FAK): 1970 nM

CNC(=O)c1cc(N2CCN(C(C)=O)CC2)ccc1Nc1nc(Nc2ccc(OCCOCCOCCF)c(-c3cnn(C)c3)c2)ncc1Br [Compound 7e, 5-(4-acetylpiperazin-1-yl)-2-((5-bromo-2-((4-(2-(2-(2-fluoroethoxy)ethoxy)ethoxy)-3-(1-methyl-1H-pyrazol-4-yl)phenyl)amino)pyrimidin-4-yl)amino)-N-methylbenzamide]
IC50 (FAK): 643 nM

CNC(=O)c1cc(N2CCOCC2)ccc1Nc1nc(Nc2ccc(OCCOCCOCCF)c(C(=O)N3CCN(C(C)=O)CC3)c2)ncc1Br [Compound 7f]
IC50 (FAK): 10 nM

CCN1CCN(c2ccc(Nc3nc(Nc4ccc(OCCOCCOCCF)c(-c5cnn(C)c5)c4)ncc3Br)c(C(=O)NC)c2)CC1 [Compound 7g, 2-((5-bromo-2-((4-(2-(2-(2-fluoroethoxy)ethoxy)ethoxy)-3-(1-methyl-1H-pyrazol-4-yl)phenyl)amino)pyrimidin-4-yl)amino)-5-(4-ethylpiperazin-1-yl)-N-methylbenzamide]
IC50 (FAK): 1240 nM

CNC(=O)c1cc(N2CCS(=O)(=O)CC2)ccc1Nc1nc(Nc2ccc(OCCOCCOCC[18F])cc2)ncc1Br [[^18F]7a]
logD [2]: 0.96
Tumor/blood ratio [1, 3]: 1.34
Tumor/muscle ratio [1, 3]: 0.80
Biodistribution, Blood [1, 3]: 0.98 ± 0.26 % ID/g
Biodistribution, Bone [1, 3]: 2.32 ± 0.45 % ID/g
Biodistribution, Brine [1, 3]: 0.57 ± 0.08 % ID/g
Biodistribution, Heart [1, 3]: 3.05 ± 0.29 % ID/g
Biodistribution, Kidney [1, 3]: 3.02 ± 1.70 % ID/g
Biodistribution, Large intestine [1, 3]: 1.46 ± 0.13 % ID/g
Biodistribution, Liver [1, 3]: 23.49 ± 4.29 % ID/g
Biodistribution, Lung [1, 3]: 33.55 ± 5.59 % ID/g
Biodistribution, Muscle [1, 3]: 1.63 ± 0.34 % ID/g
Biodistribution, Small intestine [1, 3]: 2.95 ± 0.17 % ID/g
Biodistribution, Spleen [1, 3]: 5.43 ± 1.12 % ID/g
Biodistribution, Stomach [1, 3]: 0.92 ± 0.28 % ID/g
Tumor/blood ratio [1, 4]: 1.45
Tumor/muscle ratio [1, 4]: 0.56
Biodistribution, Blood [1, 4]: 0.96 ± 0.10 % ID/g
Biodistribution, Bone [1, 4]: 2.96 ± 0.43 % ID/g
Biodistribution, Brine [1, 4]: 1.08 ± 0.13 % ID/g
Biodistribution, Heart [1, 4]: 1.12 ± 0.03 % ID/g
Biodistribution, Kidney [1, 4]: 1.47 ± 0.18 % ID/g
Biodistribution, Large intestine [1, 4]: 1.36 ± 0.36 % ID/g
Biodistribution, Liver [1, 4]: 23.16 ± 2.65 % ID/g
Biodistribution, Lung [1, 4]: 28.77 ± 5.72 % ID/g
Biodistribution, Muscle [1, 4]: 2.50 ± 0.59 % ID/g
Biodistribution, Small intestine [1, 4]: 1.58 ± 0.35 % ID/g
Biodistribution, Spleen [1, 4]: 2.53 ± 0.21 % ID/g
Biodistribution, Stomach [1, 4]: 0.80 ± 0.21 % ID/g
Tumor/blood ratio [1, 5]: 0.89
Tumor/muscle ratio [1, 5]: 4.30
Biodistribution, Blood [1, 5]: 0.92 ± 0.15 % ID/g
Biodistribution, Bone [1, 5]: 1.27 ± 0.42 % ID/g
Biodistribution, Brine [1, 5]: 0.16 ± 0.01 % ID/g
Biodistribution, Heart [1, 5]: 0.85 ± 0.09 % ID/g
Biodistribution, Kidney [1, 5]: 1.16 ± 0.06 % ID/g
Biodistribution, Large intestine [1, 5]: 4.5 ± 1.91 % ID/g
Biodistribution, Liver [1, 5]: 8.86 ± 3.14 % ID/g
Biodistribution, Lung [1, 5]: 11.63 ± 1.25 % ID/g
Biodistribution, Muscle [1, 5]: 0.20 ± 0.03 % ID/g
Biodistribution, Small intestine [1, 5]: 0.96 ± 0.29 % ID/g
Biodistribution, Spleen [1, 5]: 5.58 ± 1.06 % ID/g
Biodistribution, Stomach [1, 5]: 1.16 ± 0.40 % ID/g
Biodistribution, Tumor (tumor uptake) [1, 3]: 1.31 ± 0.07 % ID/g
Biodistribution, Tumor (tumor uptake) [1, 4]: 1.39 ± 0.30 % ID/g
Biodistribution, Tumor (tumor uptake) [1, 5]: 0.86 ± 0.34 % ID/g

CNC(=O)c1cc(N2CCS(=O)(=O)CC2)ccc1Nc1nc(Nc2ccc(OCCOCCOCC[18F])c(-c3cnn(C)c3)c2)ncc1Br [[^18F]7c]
logD [2]: 0.74
Tumor/blood ratio [1, 3]: 2.40
Tumor/muscle ratio [1, 3]: 1.88
Biodistribution, Blood [1, 3]: 2.74 ± 0.11 % ID/g
Biodistribution, Bone [1, 3]: 4.12 ± 0.39 % ID/g
Biodistribution, Brine [1, 3]: 2.81 ± 0.06 % ID/g
Biodistribution, Heart [1, 3]: 3.46 ± 0.65 % ID/g
Biodistribution, Kidney [1, 3]: 4.00 ± 0.25 % ID/g
Biodistribution, Large intestine [1, 3]: 6.18 ± 0.60 % ID/g
Biodistribution, Liver [1, 3]: 17.64 ± 4.45 % ID/g
Biodistribution, Lung [1, 3]: 120.47 ± 15.08 % ID/g
Biodistribution, Muscle [1, 3]: 3.50 ± 0.18 % ID/g
Biodistribution, Small intestine [1, 3]: 13.02 ± 1.93 % ID/g
Biodistribution, Spleen [1, 3]: 16.32 ± 1.26 % ID/g
Biodistribution, Stomach [1, 3]: 5.81 ± 1.02 % ID/g
Tumor/blood ratio [1, 4]: 1.71
Tumor/muscle ratio [1, 4]: 2.09
Biodistribution, Blood [1, 4]: 3.43 ± 0.04 % ID/g
Biodistribution, Bone [1, 4]: 4.86 ± 0.30 % ID/g
Biodistribution, Brine [1, 4]: 3.12 ± 0.66 % ID/g
Biodistribution, Heart [1, 4]: 2.53 ± 0.56 % ID/g
Biodistribution, Kidney [1, 4]: 3.82 ± 0.44 % ID/g
Biodistribution, Large intestine [1, 4]: 4.47 ± 0.44 % ID/g
Biodistribution, Liver [1, 4]: 19.21 ± 3.81 % ID/g
Biodistribution, Lung [1, 4]: 128.13 ± 6.74 % ID/g
Biodistribution, Muscle [1, 4]: 2.80 ± 0.49 % ID/g
Biodistribution, Small intestine [1, 4]: 5.73 ± 0.82 % ID/g
Biodistribution, Spleen [1, 4]: 8.48 ± 0.10 % ID/g
Biodistribution, Stomach [1, 4]: 1.14 ± 0.16 % ID/g
Tumor/blood ratio [1, 5]: 1.37
Tumor/muscle ratio [1, 5]: 2.16
Biodistribution, Blood [1, 5]: 3.79 ± 0.46 % ID/g
Biodistribution, Bone [1, 5]: 10.70 ± 1.01 % ID/g
Biodistribution, Brine [1, 5]: 2.01 ± 0.18 % ID/g
Biodistribution, Heart [1, 5]: 3.12 ± 0.25 % ID/g
Biodistribution, Kidney [1, 5]: 3.50 ± 0.37 % ID/g
Biodistribution, Large intestine [1, 5]: 48.07 ± 9.85 % ID/g
Biodistribution, Liver [1, 5]: 28.36 ± 5.74 % ID/g
Biodistribution, Lung [1, 5]: 125.29 ± 16.25 % ID/g
Biodistribution, Muscle [1, 5]: 2.04 ± 0.12 % ID/g
Biodistribution, Small intestine [1, 5]: 7.49 ± 1.46 % ID/g
Biodistribution, Spleen [1, 5]: 24.70 ± 4.31 % ID/g
Biodistribution, Stomach [1, 5]: 3.32 ± 0.31 % ID/g
Biodistribution, Tumor (tumor uptake) [1, 3]: 6.58 ± 0.46 % ID/g
Biodistribution, Tumor (tumor uptake) [1, 4]: 5.85 ± 0.28 % ID/g
Biodistribution, Tumor (tumor uptake) [1, 5]: 5.18 ± 0.68 % ID/g
